# Experimental data as given in PubChem BioAssay (NCI).
#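 Growth conditions: 96-well plates. Treatment: test compound, 48 hours, 5 concentrations. Analysis: linear interpolation between bracketing concentrations; unreached endpoints set to highest concentration. TGI: concentration producing complete growth inhibition.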
# Experiments:
# Experiment in all cases: NCI-60 cell line screen, 48 h
# 786-0 renal = tested on: 786-0 renal
# A498 renal = tested on: A498 renal
# A549 NSCLC = tested on: A549 NSCLC
# ACHN renal = tested on: ACHN renal
# CAKI-1 renal = tested on: CAKI-1 renal
# COLO 205 colon = tested on: COLO 205 colon
# DLD-1 colon = tested on: DLD-1 colon
# DMS 114 small cell lung = tested on: DMS 114 small cell lung
# EKVX NSCLC = tested on: EKVX NSCLC
# HCC-2998 colon = tested on: HCC-2998 colon
# HCT-116 colon = tested on: HCT-116 colon
# HOP-62 NSCLC = tested on: HOP-62 NSCLC
# HOP-92 NSCLC = tested on: HOP-92 NSCLC
# HT29 colon = tested on: HT29 colon
# IGROV1 ovarian = tested on: IGROV1 ovarian
# KM12 colon = tested on: KM12 colon
# LOX IMVI melanoma = tested on: LOX IMVI melanoma
# LXFL 529 NSCLC = tested on: LXFL 529 NSCLC
# M14 melanoma = tested on: M14 melanoma
# M19-MEL melanoma = tested on: M19-MEL melanoma
# MALME-3M melanoma = tested on: MALME-3M melanoma
# NCI-H226 lung = tested on: NCI-H226 lung
# NCI-H23 lung = tested on: NCI-H23 lung
# NCI-H460 lung = tested on: NCI-H460 lung
# NCI-H522 lung = tested on: NCI-H522 lung
# OVCAR-3 ovarian = tested on: OVCAR-3 ovarian
# OVCAR-4 ovarian = tested on: OVCAR-4 ovarian
# OVCAR-5 ovarian = tested on: OVCAR-5 ovarian
# OVCAR-8 ovarian = tested on: OVCAR-8 ovarian
# RPMI-8226 leukemia = tested on: RPMI-8226 leukemia
# RXF 393 renal = tested on: RXF 393 renal
# SF-268 CNS = tested on: SF-268 CNS
# SF-295 CNS = tested on: SF-295 CNS
# SF-539 CNS = tested on: SF-539 CNS
# SK-MEL-2 melanoma = tested on: SK-MEL-2 melanoma
# SK-MEL-28 melanoma = tested on: SK-MEL-28 melanoma
# SK-MEL-5 melanoma = tested on: SK-MEL-5 melanoma
# SK-OV-3 ovarian = tested on: SK-OV-3 ovarian
# SN12C renal = tested on: SN12C renal
# SNB-19 CNS = tested on: SNB-19 CNS
# SNB-78 CNS = tested on: SNB-78 CNS
# SR leukemia = tested on: SR leukemia
# SW-620 colon = tested on: SW-620 colon
# U251 CNS = tested on: U251 CNS
# UACC-257 melanoma = tested on: UACC-257 melanoma
# UACC-62 melanoma = tested on: UACC-62 melanoma
# UO-31 renal = tested on: UO-31 renal
# CCRF-CEM leukemia = tested on: CCRF-CEM leukemia
# DMS 273 small cell lung = tested on: DMS 273 small cell lung
# HCT-15 colon = tested on: HCT-15 colon
# HL-60(TB) leukemia = tested on: HL-60(TB) leukemia
# HOP-18 NSCLC = tested on: HOP-18 NSCLC
# KM20L2 colon = tested on: KM20L2 colon
# MOLT-4 leukemia = tested on: MOLT-4 leukemia
# SNB-75 CNS = tested on: SNB-75 CNS
# TK-10 renal = tested on: TK-10 renal
# K-562 leukemia = tested on: K-562 leukemia
# XF 498 CNS = tested on: XF 498 CNS
smiles,measurement,setting,value
Cc1ccc2nc(NC(=O)C(=O)C(C(=O)c3ccc4ccccc4c3)C3OC(=O)c4ccccc43)sc2c1 (centres undefined),TGI,786-0 renal,18.5 µM
same,TGI,A498 renal,21.3 µM
same,TGI,A549 NSCLC,53.8 µM
same,TGI,ACHN renal,46.1 µM
same,TGI,CAKI-1 renal,52.3 µM
same,TGI,COLO 205 colon,34.6 µM
same,TGI,DLD-1 colon,32.7 µM
same,TGI,DMS 114 small cell lung,29.3 µM
same,TGI,EKVX NSCLC,44.5 µM
same,TGI,HCC-2998 colon,23.7 µM
same,TGI,HCT-116 colon,20.8 µM
same,TGI,HOP-62 NSCLC,26.6 µM
same,TGI,HOP-92 NSCLC,15.2 µM
same,TGI,HT29 colon,31.3 µM
same,TGI,IGROV1 ovarian,44.3 µM
same,TGI,KM12 colon,37.4 µM
same,TGI,LOX IMVI melanoma,27.7 µM
same,TGI,LXFL 529 NSCLC,19.2 µM
same,TGI,M14 melanoma,28.2 µM
same,TGI,M19-MEL melanoma,32.6 µM
same,TGI,MALME-3M melanoma,22.9 µM
same,TGI,NCI-H226 lung,5.43 µM
same,TGI,NCI-H23 lung,18.3 µM
same,TGI,NCI-H460 lung,18 µM
same,TGI,NCI-H522 lung,26.3 µM
same,TGI,OVCAR-3 ovarian,> 100 µM
same,TGI,OVCAR-4 ovarian,> 100 µM
same,TGI,OVCAR-5 ovarian,23.9 µM
same,TGI,OVCAR-8 ovarian,62.1 µM
same,TGI,RPMI-8226 leukemia,> 100 µM
same,TGI,RXF 393 renal,8.79 µM
same,TGI,SF-268 CNS,31.3 µM
same,TGI,SF-295 CNS,21 µM
same,TGI,SF-539 CNS,9.21 µM
same,TGI,SK-MEL-2 melanoma,29.3 µM
same,TGI,SK-MEL-28 melanoma,19.3 µM
same,TGI,SK-MEL-5 melanoma,22.6 µM
same,TGI,SK-OV-3 ovarian,> 100 µM
same,TGI,SN12C renal,31.6 µM
same,TGI,SNB-19 CNS,26.4 µM
same,TGI,SNB-78 CNS,27.7 µM
same,TGI,SR leukemia,62.1 µM
same,TGI,SW-620 colon,22.9 µM
same,TGI,U251 CNS,15.5 µM
same,TGI,UACC-257 melanoma,31.8 µM
same,TGI,UACC-62 melanoma,25 µM
same,TGI,UO-31 renal,28.6 µM
O=C1C=CC2(CCCCCCC2=O)CC1 (centres undefined),TGI,786-0 renal,> 100 µM
same,TGI,A498 renal,> 100 µM
same,TGI,A549 NSCLC,> 100 µM
same,TGI,ACHN renal,> 100 µM
same,TGI,CAKI-1 renal,> 100 µM
same,TGI,CCRF-CEM leukemia,> 100 µM
same,TGI,COLO 205 colon,> 100 µM
same,TGI,DLD-1 colon,> 100 µM
same,TGI,DMS 273 small cell lung,> 100 µM
same,TGI,EKVX NSCLC,> 100 µM
same,TGI,HCC-2998 colon,> 100 µM
same,TGI,HCT-116 colon,> 100 µM
same,TGI,HCT-15 colon,> 100 µM
same,TGI,HL-60(TB) leukemia,> 100 µM
same,TGI,HOP-18 NSCLC,> 100 µM
same,TGI,HOP-62 NSCLC,> 100 µM
same,TGI,HOP-92 NSCLC,> 100 µM
same,TGI,HT29 colon,> 100 µM
same,TGI,IGROV1 ovarian,> 100 µM
same,TGI,KM12 colon,> 100 µM
same,TGI,KM20L2 colon,> 100 µM
same,TGI,LOX IMVI melanoma,> 100 µM
same,TGI,LXFL 529 NSCLC,> 100 µM
same,TGI,M14 melanoma,> 100 µM
same,TGI,M19-MEL melanoma,> 100 µM
same,TGI,MALME-3M melanoma,> 100 µM
same,TGI,MOLT-4 leukemia,> 100 µM
same,TGI,NCI-H226 lung,> 100 µM
same,TGI,NCI-H460 lung,> 100 µM
same,TGI,NCI-H522 lung,> 100 µM
same,TGI,OVCAR-3 ovarian,> 100 µM
same,TGI,OVCAR-4 ovarian,> 100 µM
same,TGI,OVCAR-5 ovarian,> 100 µM
same,TGI,OVCAR-8 ovarian,> 100 µM
same,TGI,RPMI-8226 leukemia,> 100 µM
same,TGI,RXF 393 renal,> 100 µM
same,TGI,SF-268 CNS,> 100 µM
same,TGI,SF-295 CNS,> 100 µM
same,TGI,SF-539 CNS,> 100 µM
same,TGI,SK-MEL-28 melanoma,> 100 µM
same,TGI,SK-MEL-5 melanoma,> 100 µM
same,TGI,SK-OV-3 ovarian,> 100 µM
same,TGI,SN12C renal,> 100 µM
same,TGI,SNB-19 CNS,> 100 µM
same,TGI,SNB-75 CNS,> 100 µM
same,TGI,SNB-78 CNS,> 100 µM
same,TGI,SR leukemia,> 100 µM
same,TGI,SW-620 colon,> 100 µM
same,TGI,TK-10 renal,> 100 µM
same,TGI,U251 CNS,> 100 µM
same,TGI,UACC-257 melanoma,> 100 µM
same,TGI,UACC-62 melanoma,> 100 µM
same,TGI,UO-31 renal,> 100 µM
CC(C)N(C(=O)C12C3C4C1C1C2C3C41C(=O)C(C)(C)C)C(C)C (centres undefined),TGI,786-0 renal,> 100 µM
same,TGI,A498 renal,> 100 µM
same,TGI,A549 NSCLC,> 100 µM
same,TGI,ACHN renal,> 100 µM
same,TGI,CAKI-1 renal,> 100 µM
same,TGI,CCRF-CEM leukemia,> 100 µM
same,TGI,COLO 205 colon,> 100 µM
same,TGI,DLD-1 colon,> 100 µM
same,TGI,DMS 114 small cell lung,> 100 µM
same,TGI,DMS 273 small cell lung,> 100 µM
same,TGI,EKVX NSCLC,> 100 µM
same,TGI,HCC-2998 colon,> 100 µM
same,TGI,HCT-116 colon,> 100 µM
same,TGI,HL-60(TB) leukemia,63.7 µM
same,TGI,HOP-62 NSCLC,> 100 µM
same,TGI,HT29 colon,> 100 µM
same,TGI,IGROV1 ovarian,> 100 µM
same,TGI,K-562 leukemia,> 100 µM
same,TGI,KM12 colon,> 100 µM
same,TGI,KM20L2 colon,> 100 µM
same,TGI,LOX IMVI melanoma,> 100 µM
same,TGI,LXFL 529 NSCLC,> 100 µM
same,TGI,M14 melanoma,> 100 µM
same,TGI,M19-MEL melanoma,> 100 µM
same,TGI,MALME-3M melanoma,> 100 µM
same,TGI,MOLT-4 leukemia,> 100 µM
same,TGI,NCI-H23 lung,> 100 µM
same,TGI,NCI-H522 lung,56.8 µM
same,TGI,OVCAR-3 ovarian,> 100 µM
same,TGI,OVCAR-4 ovarian,> 100 µM
same,TGI,OVCAR-5 ovarian,> 100 µM
same,TGI,OVCAR-8 ovarian,> 100 µM
same,TGI,RPMI-8226 leukemia,> 100 µM
same,TGI,SF-268 CNS,> 100 µM
same,TGI,SF-295 CNS,> 100 µM
same,TGI,SF-539 CNS,> 100 µM
same,TGI,SK-MEL-2 melanoma,> 100 µM
same,TGI,SK-MEL-28 melanoma,> 100 µM
same,TGI,SK-MEL-5 melanoma,> 100 µM
same,TGI,SK-OV-3 ovarian,> 100 µM
same,TGI,SN12C renal,> 100 µM
same,TGI,SNB-19 CNS,> 100 µM
same,TGI,SNB-75 CNS,> 100 µM
same,TGI,SNB-78 CNS,> 100 µM
same,TGI,SW-620 colon,> 100 µM
same,TGI,TK-10 renal,> 100 µM
same,TGI,U251 CNS,> 100 µM
same,TGI,UACC-257 melanoma,> 100 µM
same,TGI,UACC-62 melanoma,> 100 µM
same,TGI,UO-31 renal,> 100 µM
same,TGI,XF 498 CNS,> 100 µM
[N-]=[N+]=CC(=O)C1(C(=O)C=[N+]=[N-])CC1,TGI,786-0 renal,> 100 µM
same,TGI,A498 renal,> 100 µM
same,TGI,A549 NSCLC,> 100 µM
same,TGI,ACHN renal,> 100 µM
same,TGI,CCRF-CEM leukemia,> 100 µM
same,TGI,COLO 205 colon,> 100 µM
same,TGI,DMS 114 small cell lung,> 100 µM
same,TGI,DMS 273 small cell lung,> 100 µM
same,TGI,EKVX NSCLC,> 100 µM
same,TGI,HCC-2998 colon,> 100 µM
same,TGI,HCT-116 colon,> 100 µM
same,TGI,HCT-15 colon,> 100 µM
same,TGI,HL-60(TB) leukemia,> 100 µM
same,TGI,HOP-18 NSCLC,> 100 µM
same,TGI,HOP-62 NSCLC,> 100 µM
same,TGI,HT29 colon,> 100 µM
same,TGI,IGROV1 ovarian,> 100 µM
same,TGI,K-562 leukemia,> 100 µM
same,TGI,KM12 colon,> 100 µM
same,TGI,KM20L2 colon,> 100 µM
same,TGI,LOX IMVI melanoma,> 100 µM
same,TGI,LXFL 529 NSCLC,> 100 µM
same,TGI,M14 melanoma,> 100 µM
same,TGI,M19-MEL melanoma,> 100 µM
same,TGI,MALME-3M melanoma,> 100 µM
same,TGI,MOLT-4 leukemia,> 100 µM
same,TGI,NCI-H226 lung,> 100 µM
same,TGI,NCI-H23 lung,> 100 µM
same,TGI,NCI-H460 lung,> 100 µM
same,TGI,NCI-H522 lung,> 100 µM
same,TGI,OVCAR-3 ovarian,> 100 µM
same,TGI,OVCAR-4 ovarian,> 100 µM
same,TGI,OVCAR-5 ovarian,> 100 µM
same,TGI,OVCAR-8 ovarian,> 100 µM
same,TGI,RXF 393 renal,> 100 µM
same,TGI,SF-268 CNS,> 100 µM
same,TGI,SF-295 CNS,> 100 µM
same,TGI,SF-539 CNS,> 100 µM
same,TGI,SK-MEL-2 melanoma,> 100 µM
same,TGI,SK-MEL-28 melanoma,> 100 µM
same,TGI,SK-MEL-5 melanoma,> 100 µM
same,TGI,SK-OV-3 ovarian,> 100 µM
same,TGI,SN12C renal,> 100 µM
same,TGI,SNB-19 CNS,> 100 µM
same,TGI,SNB-75 CNS,> 100 µM
same,TGI,SNB-78 CNS,> 100 µM
same,TGI,SR leukemia,> 100 µM
same,TGI,SW-620 colon,> 100 µM
same,TGI,TK-10 renal,> 100 µM
same,TGI,U251 CNS,> 100 µM
same,TGI,UACC-257 melanoma,> 100 µM
same,TGI,UO-31 renal,> 100 µM
same,TGI,XF 498 CNS,> 100 µM
